In the supplement of paper PMC8092582:
Where a name gives a salt, the structure may show the parent alone. ± gives the standard deviation of the averaged measurements.

System: HeLa
Test: cell viability (CellTiter-Glo) relative to median of lowest-dilution wells of all drugs (fraction); higher = more viable cells
Experimental: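 HeLa control and CRISPR DDX11 knockout cells were seeded in 384-well plates and incubated for 72 h with each of 64 […] drugs at six concentrations. Viability was read with CellTiter-Glo and normalised to the median of the lowest (6th) dilution wells of all drugs. Two biological replicates (BR1, BR2) are averaged; the concentration unit is not stated.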

[1] = drug concentration (unit not stated): 0.04, genotype: DDX11 knockout
[2] = drug concentration (unit not stated): 0.04, genotype: control (DDX11 wild type)
[3] = drug concentration (unit not stated): 0.12, genotype: DDX11 knockout
[4] = drug concentration (unit not stated): 0.12, genotype: control (DDX11 wild type)
[5] = drug concentration (unit not stated): 0.37, genotype: DDX11 knockout
[6] = drug concentration (unit not stated): 0.37, genotype: control (DDX11 wild type)
[7] = drug concentration (unit not stated): 1.11, genotype: DDX11 knockout
[8] = drug concentration (unit not stated): 1.11, genotype: control (DDX11 wild type)
[9] = drug concentration (unit not stated): 3.33, genotype: DDX11 knockout
[10] = drug concentration (unit not stated): 3.33, genotype: control (DDX11 wild type)
[11] = drug concentration (unit not stated): 10, genotype: DDX11 knockout
[12] = drug concentration (unit not stated): 10, genotype: control (DDX11 wild type)
[13] = drug concentration (unit not stated): 0.01, genotype: DDX11 knockout
[14] = drug concentration (unit not stated): 0.01, genotype: control (DDX11 wild type)

Compound | cell viability [1] | cell viability [2] | cell viability [3] | cell viability [4] | cell viability [5] | cell viability [6] | cell viability [7] | cell viability [8] | cell viability [9] | cell viability [10] | cell viability [11] | cell viability [12] | cell viability [13] | cell viability [14] | cell viability (drug concentration (unit not stated): 30, genotype: DDX11 knockout) | cell viability (drug concentration (unit not stated): 30, genotype: control (DDX11 wild type))
Cn1cnc2c(F)c(Nc3ccc(Br)cc3Cl)c(C(=O)NOCCO)cc21 [Selumetinib (AZD6244)] | 0.991 ± 0.022 | 0.985 ± 0.059 | 0.963 ± 0.029 | 0.957 ± 0.085 | 0.9 ± 0.078 | 0.95 ± 0.15 | 0.902 ± 0.082 | 0.955 ± 0.12 | 0.855 ± 0.067 | 0.935 ± 0.22 | 0.744 ± 0.13 | 0.913 ± 0.38 | – | – | – | –
O=C(O)CCCc1ccc(N(CCCl)CCCl)cc1 [Chlorambucil] | 1.061 ± 0.009 | 0.974 ± 0.056 | 1.02 ± 0.062 | 0.9875 ± 0.0097 | 1.05 ± 0.11 | 1.02 ± 0.012 | 1.06 ± 0.057 | 0.999 ± 0.021 | 1.07 ± 0.042 | 1.05 ± 0.082 | 0.925 ± 0.1 | 1.03 ± 0.051 | – | – | – | –
O=c1cc(N2CCOCC2)oc2c(-c3cccc4c3sc3ccccc34)cccc12 [NU7441] | 0.982 ± 0.06 | 0.9779 ± 0.0026 | 0.953 ± 0.032 | 0.963 ± 0.011 | 1.02 ± 0.073 | 0.9893 ± 0.0052 | 0.972 ± 0.013 | 1.019 ± 0.0044 | 0.918 ± 0.066 | 0.992 ± 0.14 | 0.834 ± 0.15 | 0.935 ± 0.37 | – | – | – | –
CCN(CCO)CCCOc1ccc2c(Nc3cc(CC(=O)Nc4cccc(F)c4)[nH]n3)ncnc2c1 [AZD1152-HQPA (Barasertib)] | 0.927 ± 0.032 | 0.985 ± 0.18 | 0.912 ± 0.066 | 1.01 ± 0.22 | 0.883 ± 0.1 | 0.97 ± 0.28 | 0.888 ± 0.051 | 0.964 ± 0.21 | 0.831 ± 0.027 | 0.957 ± 0.25 | 0.813 ± 0.064 | 0.953 ± 0.23 | – | – | – | –
COc1cccc2c1C(=O)c1c(O)c3c(c(O)c1C2=O)C[C@@](O)(C(=O)CO)C[C@@H]3O[C@H]1C[C@H](N)[C@H](O)[C@H](C)O1 [Doxorubicin (Adriamycin)] | 0.923 ± 0.087 | 0.986 ± 0.0043 | 0.75 ± 0.18 | 0.96 ± 0.41 | 0.328 ± 0.4 | 0.679 ± 0.6 | 0.024 ± 0.0057 | 0.153 ± 0.2 | 0.0172 ± 0.0017 | 0.0179 ± 0.006 | – | – | 1.02 ± 0.03 | 0.9786 ± 0.0019 | – | –
Nc1nc2[nH]cc(CCc3ccc(C(=O)N[C@@H](CCC(=O)O)C(=O)O)cc3)c2c(=O)[nH]1 [Pemetrexed] | 0.983 ± 0.29 | 0.903 ± 0.41 | 0.911 ± 0.26 | 0.98 ± 0.53 | 0.781 ± 0.21 | 0.814 ± 0.4 | 0.741 ± 0.18 | 0.756 ± 0.34 | – | – | – | – | 1 ± 0.099 | 0.99 ± 0.11 | – | –
N.N.[Cl][Pt][Cl] [Cisplatin] | 0.76437 ± 0.00042 | 0.986 ± 0.093 | 0.541 ± 0.11 | 0.885 ± 0.29 | 0.233 ± 0.12 | 0.464 ± 0.12 | 0.0768 ± 0.043 | 0.112 ± 0.0088 | 0.0231 ± 0.0084 | 0.024 ± 0.0028 | 0.0148 ± 0.0023 | 0.0159 ± 0.0015 | – | – | – | –
COc1ccc(C2=N[C@@H](c3ccc(Cl)cc3)[C@@H](c3ccc(Cl)cc3)N2C(=O)N2CCNC(=O)C2)c(OC(C)C)c1 [Nutlin-3] | 0.977 ± 0.022 | 0.944 ± 0.013 | 0.981 ± 0.057 | 0.9784 ± 0.0054 | 0.983 ± 0.047 | 1.029 ± 0.0079 | 0.9903 ± 0.0028 | 0.956 ± 0.0068 | 0.965 ± 0.026 | 1.035 ± 0.0094 | 0.9631 ± 0.0059 | 1.06 ± 0.096 | – | – | – | –
O=c1[nH]c(=O)n([C@H]2C[C@H](O)[C@@H](CO)O2)cc1F [Floxuridine] | 1 ± 0.05 | 1.1 ± 0.054 | 0.961 ± 0.15 | 0.998 ± 0.019 | 1.01 ± 0.13 | 0.952 ± 0.19 | 0.858 ± 0.19 | 0.874 ± 0.31 | 0.76 ± 0.43 | 0.786 ± 0.51 | – | – | 1.04 ± 0.047 | 1.2 ± 0.21 | – | –
Nc1nc2[nH]cnc2c(=S)[nH]1 [Thioguanine] | 1.03 ± 0.045 | 1.04 ± 0.04 | 0.992 ± 0.017 | 0.971 ± 0.044 | 0.94 ± 0.039 | 0.762 ± 0.065 | 0.731 ± 0.15 | 0.428 ± 0.15 | 0.536 ± 0.12 | 0.433 ± 0.21 | 0.239 ± 0.025 | 0.387 ± 0.2 | – | – | – | –
Cc1sc2c(c1C)C(c1ccc(Cl)cc1)=N[C@@H](CC(=O)OC(C)(C)C)c1nnc(C)n1-2 [(+)-JQ-1] | 1.02 ± 0.059 | 0.977 ± 0.047 | 0.93 ± 0.14 | 0.962 ± 0.17 | 0.849 ± 0.19 | 0.98 ± 0.49 | 0.671 ± 0.033 | 0.827 ± 0.26 | 0.5507 ± 0.0013 | 0.757 ± 0.2 | 0.5098 ± 0.0035 | 0.637 ± 0.18 | – | – | – | –
CN(Cc1cnc2nc(N)nc(N)c2n1)c1ccc(C(=O)N[C@@H](CCC(=O)O)C(=O)O)cc1 [Abitrexate (Methotrexate)] | 0.79 ± 0.24 | 0.723 ± 0.34 | 0.772 ± 0.21 | 0.665 ± 0.35 | 0.725 ± 0.17 | 0.606 ± 0.33 | 0.462 ± 0.08 | 0.58 ± 0.31 | – | – | – | – | 0.864 ± 0.26 | 0.969 ± 0.64 | – | –
COc1cccc2c1C(=O)c1c(O)c3c(c(O)c1C2=O)C[C@@](O)(C(=O)CO)C[C@@H]3O[C@H]1C[C@H](N)[C@@H](O)[C@H](C)O1 [Epirubicin Hydrochloride] | 0.89 ± 0.23 | 0.967 ± 0.084 | 0.596 ± 0.37 | 0.902 ± 0.42 | 0.304 ± 0.39 | 0.55 ± 0.72 | 0.0326 ± 0.0056 | 0.164 ± 0.21 | 0.0161 ± 0.003 | 0.0225 ± 0.011 | – | – | 1.02 ± 0.021 | 1.04 ± 0.05 | – | –
Cc1cc(Nc2cc(N3CCN(C)CC3)nc(Sc3ccc(NC(=O)C4CC4)cc3)n2)n[nH]1 [Tozasertib (VX-680)] | – | – | 0.959 ± 0.016 | 0.978 ± 0.1 | 0.951 ± 0.025 | 1.1 ± 0.2 | 0.976 ± 0.087 | 1.03 ± 0.22 | 0.912 ± 0.048 | 1.02 ± 0.23 | 0.823 ± 0.04 | 0.975 ± 0.22 | – | – | 0.659 ± 0.067 | 0.764 ± 0.19
CCCCCCNC(=O)n1cc(F)c(=O)[nH]c1=O [Carmofur] | 1.01 ± 0.038 | 0.998 ± 0.026 | 1.02 ± 0.019 | 1.007 ± 0.0099 | 1.09 ± 0.081 | 1.05 ± 0.044 | 1.02 ± 0.093 | 1.07 ± 0.22 | 0.956 ± 0.24 | 1.03 ± 0.46 | 0.857 ± 0.2 | 0.924 ± 0.39 | – | – | – | –
CCn1nc(C2CCN(C(=O)CCO)CC2)nc1-c1cnc(N)c(-c2nnc(C(C)(C)C)o2)n1 [AZD8835] | 1.08 ± 0.046 | 1.07 ± 0.014 | 0.987 ± 0.09 | 1.05 ± 0.027 | 0.908 ± 0.098 | 0.988 ± 0.078 | 0.876 ± 0.059 | 0.98 ± 0.12 | 0.803 ± 0.077 | 0.996 ± 0.057 | 0.785 ± 0.052 | 1.05 ± 0.03 | – | – | – | –
C=CCn1c(=O)c2cnc(Nc3ccc(N4CCN(C)CC4)cc3)nc2n1-c1cccc(C(C)(C)O)n1 [AZD1775] | 0.9297 ± 0.0031 | 0.962 ± 0.028 | 0.922 ± 0.021 | 0.951 ± 0.021 | 0.85 ± 0.048 | 0.959 ± 0.025 | 0.423 ± 0.12 | 0.615 ± 0.014 | 0.213 ± 0.0052 | 0.288 ± 0.11 | 0.0863 ± 0.058 | 0.092 ± 0.087 | – | – | – | –
COc1cc(Nc2ncc3c(n2)-c2ccc(Cl)cc2C(c2c(F)cccc2OC)=NC3)ccc1C(=O)O [Alisertib] | 0.996 ± 0.016 | 1.03 ± 0.1 | 0.752 ± 0.019 | 0.966 ± 0.34 | 0.7 ± 0.092 | 0.844 ± 0.23 | 0.859 ± 0.029 | 0.919 ± 0.16 | 0.781 ± 0.041 | 0.827 ± 0.12 | – | – | 1.056 ± 0.0065 | 1.044 ± 0.0066 | – | –
COCC[n+]1c2c(n(Cc3cnccn3)c1C)C(=O)c1ccccc1C2=O [YM155 (Sepantronium bromide)] | 0.0143 ± 0.0008 | 0.0164 ± 0.0034 | 0.0146 ± 0.00021 | 0.0177 ± 0.0016 | 0.0135 ± 0.00019 | 0.0166 ± 0.0028 | 0.0136 ± 0.00081 | 0.0158 ± 0.0023 | – | – | – | – | 0.0145 ± 0.002 | 0.015 ± 0.0031 | – | –
C[C@@H](Nc1cc(F)cc(F)c1)c1cc(C(=O)N(C)C)cc2c(=O)cc(N3CCOCC3)oc12 [AZD8186] | 0.961 ± 0.075 | 1.01 ± 0.036 | 0.946 ± 0.098 | 1.01 ± 0.027 | 0.887 ± 0.049 | 0.952 ± 0.076 | 0.847 ± 0.075 | 0.92 ± 0.12 | 0.764 ± 0.082 | 0.887 ± 0.17 | 0.654 ± 0.13 | 0.908 ± 0.19 | – | – | – | –
